The values below come from patent publication US20100056524A1, “Compound” (priority 2008, published 2010).

What all share (assay type): biochemical
One assay addresses T1, S6K1 (Homo sapiens, UniProt P23443, T412E).
T1 construct: All protein kinases were of human origin and encoded full length proteins, unless indicated otherwise; made in house
Briefly: S6K1 protein kinase assay. The settings on record: for remaining activity at 1 µM: 1 μM compound; for remaining activity at 10 µM: 10 μM compound; for residual kinase activity S6K1: 1 μm compound. An excerpt:
(§1) All protein kinases were of human origin and encoded full length proteins, unless indicated otherwise. They were either expressed as glutathione S-transferase (GST) fusion proteins in Escherichia Coli or as hexahistidine (His6)-tagged proteins in insect Sf21 cells. GST fusion proteins were purified by affinity chromatography on glutathione-Sepharose, and His6-tagged proteins on nickel/nitriloacetate-agarose. The procedures for expressing some of the protein kinases used herein have been detailed previously.^8,9 The following sections outline the DNA vectors synthesised and the procedures used to express and purifying protein kinases that have not been reported previously.
(§2) All assays (25.5 μl) were carried out at room temperature (21° C.) and were linear with respect to time and enzyme concentration under the conditions used. Assays were performed for 30 min using Multidrop Micro reagent dispensers (Thermo Electron Corporation, Waltham, Mass. 02454, USA) in a 96-well format. The concentration of magnesium acetate in the assays was 10 mM and the [γ-33P] ATP (800 cpm/pmol) was used at 5, 20 or 50 μM as indicated, in order to be at or below the Km for ATP for each enzyme. Protein kinases assayed at 5 μM ATP were: —ERK1, ERK8, PKBα, MARK3, Aurora C. Protein kinases assayed at 20 μM ATP were: —JNK1, PDK1, CHK1, CHK2, CDK2 and Aurora B. Protein kinases assayed at 50 μM ATP were: —MNK2, IKKepsilon and TBK1.
(§3) The assays were initiated with MgATP, stopped by addition of 5 μl of 0.5 M orthophosphoric acid and spotted on to P81 filterplates using a unifilter harvester (PerkinElmer, Boston, Mass. 02118, USA). The IC50 values of inhibitors were determined after carrying out assays at 10 different concentrations of each compound.
(§4) Unless stated otherwise, enzymes were diluted in 50 mM Tris/HCl pH 7.5, 0.1 mM EGTA, 1 mg/ml BSA, 0.1% (v/v) 2-mercaptoethanol and assayed in 50 mM Tris/HCl pH 7.5, 0.1 mM EGTA, 0.1% (v/v) 2-mercaptoethanol.

The target in a further assay is T2, PLK1 (Homo sapiens, UniProt P53350).
T2 construct: All protein kinases were of human origin and encoded full length proteins, unless indicated otherwise; made in house
T2 sequence (P53350 whole entry): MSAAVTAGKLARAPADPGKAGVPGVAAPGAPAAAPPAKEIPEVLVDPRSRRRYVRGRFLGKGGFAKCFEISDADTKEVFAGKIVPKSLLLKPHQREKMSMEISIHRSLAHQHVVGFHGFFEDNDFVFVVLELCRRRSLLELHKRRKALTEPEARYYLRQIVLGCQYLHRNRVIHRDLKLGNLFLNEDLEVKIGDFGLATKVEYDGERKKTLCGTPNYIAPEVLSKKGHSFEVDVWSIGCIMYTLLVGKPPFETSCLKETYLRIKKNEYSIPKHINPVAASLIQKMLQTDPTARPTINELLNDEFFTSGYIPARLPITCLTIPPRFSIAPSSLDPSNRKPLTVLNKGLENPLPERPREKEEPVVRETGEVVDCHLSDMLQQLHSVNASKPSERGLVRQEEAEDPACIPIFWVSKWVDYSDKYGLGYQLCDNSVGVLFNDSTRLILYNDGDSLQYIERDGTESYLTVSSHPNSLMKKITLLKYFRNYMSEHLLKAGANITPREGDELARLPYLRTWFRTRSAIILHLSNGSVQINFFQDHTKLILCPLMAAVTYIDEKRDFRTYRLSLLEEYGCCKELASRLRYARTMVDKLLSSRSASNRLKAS
Briefly: PLK1 protein kinase assay. The settings on record: for remaining activity at 1 µM: 1 μM compound; for remaining activity at 10 µM: 10 μM compound; for residual kinase activity PLK1: 1 μm compound.
From the text: as §1, §2, §3, §4

The target of a further assay is T3, PKC zeta (Homo sapiens, UniProt Q05513).
T3 construct: All protein kinases were of human origin and encoded full length proteins, unless indicated otherwise; made in house
T3 sequence (Q05513 1-592): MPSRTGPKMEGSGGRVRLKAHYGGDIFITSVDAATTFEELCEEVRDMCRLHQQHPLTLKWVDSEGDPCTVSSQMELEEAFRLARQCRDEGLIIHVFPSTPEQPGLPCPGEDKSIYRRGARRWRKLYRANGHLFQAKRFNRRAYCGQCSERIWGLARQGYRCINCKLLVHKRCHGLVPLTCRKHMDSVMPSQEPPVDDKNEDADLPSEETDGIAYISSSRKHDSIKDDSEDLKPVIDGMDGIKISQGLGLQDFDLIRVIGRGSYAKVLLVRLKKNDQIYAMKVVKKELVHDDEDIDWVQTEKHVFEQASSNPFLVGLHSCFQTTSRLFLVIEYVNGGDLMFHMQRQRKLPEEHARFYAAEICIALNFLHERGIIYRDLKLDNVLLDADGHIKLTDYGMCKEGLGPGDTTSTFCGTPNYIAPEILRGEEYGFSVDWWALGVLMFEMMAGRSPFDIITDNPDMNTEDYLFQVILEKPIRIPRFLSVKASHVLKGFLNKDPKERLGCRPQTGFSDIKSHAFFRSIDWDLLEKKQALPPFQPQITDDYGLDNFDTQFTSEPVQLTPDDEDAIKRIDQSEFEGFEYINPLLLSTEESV
Briefly: PKC zeta protein kinase assay. The settings on record: for remaining activity at 1 µM: 1 μM compound; for remaining activity at 10 µM: 10 μM compound; for residual kinase activity PKC zeta: 1 μm compound.
From the text: as §1, §2, §3, §4

In a further assay the target is T4, PIM1 (Homo sapiens, UniProt P11309).
T4 construct: All protein kinases were of human origin and encoded full length proteins, unless indicated otherwise; made in house
T4 sequence (P11309 whole entry): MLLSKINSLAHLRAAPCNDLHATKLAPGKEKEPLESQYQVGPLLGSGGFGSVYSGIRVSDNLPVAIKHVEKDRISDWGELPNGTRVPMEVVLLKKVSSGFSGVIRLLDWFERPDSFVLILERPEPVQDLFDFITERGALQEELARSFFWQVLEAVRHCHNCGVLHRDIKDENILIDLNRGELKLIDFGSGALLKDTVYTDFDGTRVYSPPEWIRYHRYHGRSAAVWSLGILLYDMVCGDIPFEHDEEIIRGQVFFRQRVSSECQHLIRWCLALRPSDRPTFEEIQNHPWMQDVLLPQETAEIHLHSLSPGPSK
Briefly: PIM1 protein kinase assay. The settings on record: for remaining activity at 1 µM: 1 μM compound; for remaining activity at 10 µM: 10 μM compound; for residual kinase activity PIM1: 1 μm compound.
From the text: as §1, §2, §3, §4

A further assay concerns the target T5, CAMKKb (Homo sapiens, UniProt Q96RR4).
T5 construct: All protein kinases were of human origin and encoded full length proteins, unless indicated otherwise; made in house
Briefly: CAMKKb protein kinase assay. The settings on record: for remaining activity at 1 µM: 1 μM compound; for remaining activity at 10 µM: 10 μM compound; for residual kinase activity CAMKKb: 1 μm compound.
From the text: as §1, §2, §3, §4

For another assay, the target named is T6, PKA (Homo sapiens, UniProt P17612).
T6 construct: All protein kinases were of human origin and encoded full length proteins, unless indicated otherwise; made in house
In words: PKA protein kinase assay. The settings on record: for remaining activity at 1 µM: 1 μM compound; for remaining activity at 10 µM: 10 μM compound; for residual kinase activity PKA: 1 μm compound.
From the text: as §1, §2, §3, §4

A further assay has as its target T7, p38s MAPK (Homo sapiens, UniProt O15264).
T7 construct: All protein kinases were of human origin and encoded full length proteins, unless indicated otherwise; made in house
T7 sequence (O15264 1-365): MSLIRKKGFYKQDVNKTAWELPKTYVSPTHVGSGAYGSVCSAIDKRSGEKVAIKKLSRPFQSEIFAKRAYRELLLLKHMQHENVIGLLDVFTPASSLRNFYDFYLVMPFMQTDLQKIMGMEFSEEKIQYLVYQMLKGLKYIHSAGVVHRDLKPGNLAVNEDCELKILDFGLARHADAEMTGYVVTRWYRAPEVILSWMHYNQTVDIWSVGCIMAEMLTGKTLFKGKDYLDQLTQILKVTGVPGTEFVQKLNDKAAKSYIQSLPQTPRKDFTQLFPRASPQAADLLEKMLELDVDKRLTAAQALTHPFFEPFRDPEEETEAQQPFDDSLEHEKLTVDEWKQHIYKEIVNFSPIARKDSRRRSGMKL
In words: p38s MAPK protein kinase assay. The settings on record: for remaining activity at 1 µM: 1 μM compound; for remaining activity at 10 µM: 10 μM compound; for residual kinase activity p38s MAPK: 1 μm compound.
From the text: as §1, §2, §3, §4

The mark [1] stands for this setting: S6K1, read-out: residual kinase activity.
Where [2] appears, read: PLK1, read-out: residual kinase activity.
Where [3] appears, read: PKC zeta, read-out: residual kinase activity.
Where [4] appears, read: PIM1, read-out: residual kinase activity.
The mark [5] stands for this setting: CAMKKb, read-out: residual kinase activity.
The mark [6] stands for this setting: PKA, read-out: residual kinase activity.
[7] abbreviates: p38s MAPK, read-out: residual kinase activity.
Where [8] appears, read: read-out: residual kinase activity S6K1.
Setting [9] is: read-out: residual kinase activity PLK1.
[10] abbreviates: read-out: residual kinase activity PKC zeta.
[11] abbreviates: read-out: residual kinase activity PIM1.
Setting [12] is: read-out: residual kinase activity CAMKKb.
Where [13] appears, read: read-out: residual kinase activity PKA.
Where [14] appears, read: read-out: residual kinase activity p38s MAPK.

Where a name gives a salt, the structure may show the parent alone. Read-outs that look alike come from different tables or passages of the source.

T5 sequence (Q96RR4 whole entry): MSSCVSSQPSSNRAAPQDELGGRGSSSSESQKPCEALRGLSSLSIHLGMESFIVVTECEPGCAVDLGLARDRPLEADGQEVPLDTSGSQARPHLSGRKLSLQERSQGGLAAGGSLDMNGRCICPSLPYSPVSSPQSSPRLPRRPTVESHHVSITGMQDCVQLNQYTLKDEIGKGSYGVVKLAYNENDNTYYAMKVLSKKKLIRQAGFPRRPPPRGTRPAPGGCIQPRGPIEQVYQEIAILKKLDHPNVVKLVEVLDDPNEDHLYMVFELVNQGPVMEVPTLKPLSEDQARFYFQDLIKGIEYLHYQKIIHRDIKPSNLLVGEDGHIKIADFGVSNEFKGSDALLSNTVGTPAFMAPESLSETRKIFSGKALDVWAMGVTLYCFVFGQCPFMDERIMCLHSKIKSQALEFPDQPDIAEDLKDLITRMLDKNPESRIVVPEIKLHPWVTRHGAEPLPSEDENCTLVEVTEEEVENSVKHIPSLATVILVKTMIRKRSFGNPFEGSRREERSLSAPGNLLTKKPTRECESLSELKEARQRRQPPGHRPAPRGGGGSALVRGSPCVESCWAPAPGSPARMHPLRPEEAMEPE
T1 sequence (P23443 1-421 T412E limits assumed): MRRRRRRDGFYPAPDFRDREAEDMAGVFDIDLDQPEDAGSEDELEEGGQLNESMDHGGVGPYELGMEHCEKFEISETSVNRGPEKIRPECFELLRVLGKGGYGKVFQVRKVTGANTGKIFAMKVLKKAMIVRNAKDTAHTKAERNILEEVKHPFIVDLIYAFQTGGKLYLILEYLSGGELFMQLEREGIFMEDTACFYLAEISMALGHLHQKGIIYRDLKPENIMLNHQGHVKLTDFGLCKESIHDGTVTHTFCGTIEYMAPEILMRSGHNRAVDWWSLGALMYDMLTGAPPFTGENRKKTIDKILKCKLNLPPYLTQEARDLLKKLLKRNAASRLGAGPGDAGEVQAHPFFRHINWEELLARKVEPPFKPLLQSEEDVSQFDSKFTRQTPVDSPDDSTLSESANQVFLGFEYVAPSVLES

For `O=C(NCCCNc1nc(Nc2cccnc2)ncc1C1CC1)c1cccs1` [Example 50, Thiophene-2-carboxylic acid {3-[5-cyclopropyl-2-(pyridin-3-ylamino)-pyrimidin-4-ylamino]-propyl}-amide], the remaining activity at 1 µM on S6K1 (setting [1]) turned out to be 63%; on PLK1 (setting [2]), 101%; on PKC zeta (setting [3]) it was 84%; on PIM1 (setting [4]), 63%; on CAMKKb (setting [5]), 72%; at PKA (setting [6]) it was 91%. For the same compound, at p38s MAPK (setting [7]), the remaining activity at 1 µM stood at 79%. In addition, the remaining activity at 10 µM on S6K1 (setting [1]) came to 30%; on PLK1 (setting [2]) it was 66%; on PKC zeta (setting [3]) it was 73%; at PIM1 (setting [4]), 92%; at CAMKKb (setting [5]), 40%; on PKA (setting [6]), 80%. At p38s MAPK (setting [7]), the remaining activity at 10 µM amounted to 67%.
With `O=C(NCCCNc1nc(Nc2cccc(F)c2)ncc1Br)C1CCC1` [Compound A, cyclobutanecarboxylic acid {3-[5-bromo-2-(3-fluoro-phenylamino)-pyrimidin-4-ylamino]-propyl}-amide, reference compound], the remaining activity at 10 µM was 13% on S6K1 (setting [8]); 45% at PLK1 (setting [9]); 42% at PKC zeta (setting [10]); 50% on PIM1 (setting [11]); 22% at CAMKKb (setting [12]); 22% on PKA (setting [13]). Moreover, the remaining activity at 10 µM at p38s MAPK (setting [14]) stood at 15%. In addition, the “residual kinase activity S6K1” value on S6K1 is 49%. The “residual kinase activity PLK1” value at PLK1 is recorded as 82%. Also, at PKC zeta, the “residual kinase activity PKC zeta” value came to 90%. Also, on PIM1, the “residual kinase activity PIM1” value stood at 52%. Besides, on CAMKKb, the “residual kinase activity CAMKKb” value was found to be 27%. Moreover, the “residual kinase activity PKA” value at PKA came to 75%. The “residual kinase activity p38s MAPK” value on p38s MAPK amounted to 55%.
In the case of `O=C(NCCCNc1nc(Nc2cccc(F)c2)ncc1C1CC1)C1CCC1` [Example 23, Cyclobutanecarboxylic acid {3-[5-cyclopropyl-2-(3-fluoro-phenylamino)-pyrimidin-4-ylamino]-propyl}-amide], the remaining activity at 10 µM on S6K1 (setting [8]) came to 30%; on S6K1 (setting [1]), 30%; on PLK1 (setting [9]) it was 62%; on PLK1 (setting [2]), 62%; on PKC zeta (setting [10]), 89%; on PKC zeta (setting [3]), 89%. Also, the remaining activity at 10 µM came out at 46% at PIM1 (setting [11]); 46% at PIM1 (setting [4]); 8% at CAMKKb (setting [12]); 8% on CAMKKb (setting [5]); 73% at PKA (setting [13]); 73% on PKA (setting [6]). The remaining activity at 10 µM at p38s MAPK (setting [14]) and on p38s MAPK (setting [7]) was 72% throughout. Moreover, the “residual kinase activity S6K1” value at S6K1 is 38%. Also, the remaining activity at 1 µM at S6K1 (setting [1]) was determined as 38%; on PLK1 (setting [2]) it was 90%; at PKC zeta (setting [3]), 99%; at PIM1 (setting [4]), 78%; at CAMKKb (setting [5]), 43%; on PKA (setting [6]), 80%. The remaining activity at 1 µM on p38s MAPK (setting [7]) was 77%. For the same compound, at PLK1, the “residual kinase activity PLK1” value stood at 90%. In addition, the “residual kinase activity PKC zeta” value on PKC zeta is recorded as 99%. Moreover, on PIM1, the “residual kinase activity PIM1” value is 78%. At CAMKKb, the “residual kinase activity CAMKKb” value was found to be 43%. In addition, the “residual kinase activity PKA” value on PKA was found to be 80%. The “residual kinase activity p38s MAPK” value at p38s MAPK stood at 77%.
As for `O=C(NCCCNc1nc(Nc2cccc(N3CCCC3=O)c2)ncc1C1CC1)c1cccs1` [Example 47, Thiophene-2-carboxylic acid (3-{5-cyclopropyl-2-[3-(2-oxo-pyrrolidin-1-yl)-phenylamino]-pyrimidin-4-ylamino}-propyl)-amide. Hydrochloride salt], the remaining activity at 1 µM at S6K1 (setting [1]) is 63%; on PLK1 (setting [2]) it was 88%; on PKC zeta (setting [3]), 80%; on PIM1 (setting [4]) it was 82%; at CAMKKb (setting [5]) it was 61%; at PKA (setting [6]) it was 96%. The remaining activity at 1 µM on p38s MAPK (setting [7]) was 84%. Also, the remaining activity at 10 µM on S6K1 (setting [1]) turned out to be 30%; at PLK1 (setting [2]), 75%; on PKC zeta (setting [3]), 78%; at PIM1 (setting [4]), 57%; on CAMKKb (setting [5]), 36%; on PKA (setting [6]) it was 80%. In addition, the remaining activity at 10 µM at p38s MAPK (setting [7]) was determined as 84%.
